SMILES strings stand for the structures. In brackets after ≈: the same amount, converted by molar mass. Read-outs that look alike come from different tables or passages of the source. Where only a bound is given, the exact number is not on record here.

For one experiment, the system named is Salmonella typhimurium. Put plainly: Activity against Salmonella typhimurium in chicks when administered in the feed (Experiment 4). It counts as in vivo. The note with it: for Final Avg. Chicken Wt.: tenth day. How it is done: The activity of certain of the nitroimidazoles against Salmonella typhimurium in chicks when administered in the feed was determined.
One-day-old chicks, divided into groups of 12, were given compound 1, 6, or 7 in the feed at levels of 100 g. per ton, 50 g. per ton, 25 g. per ton, and 10 g. per ton continuously throughout the experiments. Several replicates of nonmedicated infected control groups were included. Later on day 1, all replicates were given 50.0 ml. of a tryptose broth culture of S. typhimurium as their initial liquid for drinking. This was placed in the cage waterer and served as the challenge.
Daily records of mortality were maintained and survivors were weighed on the tenth day of the experiment, the day of termination. The compounds tested are identified by the numbers 1, 6, and 7, as set forth hereinabove. In the chart, column 1 lists the test compound; column 2, the dosage level of test compound in grams per ton of feed; column 3 lists the number of replicates run on each compound at each dosage level; column 4 lists the survival ratio; and column 5, the final average chicken weight.

In another experiment the test system is Pasteurella multocida. As to the kind of experiment: Efficacy against Pasteurella multocida infections in mice when administered by injection (Experiment 1). Format: in vivo, Swiss mice. The note with it: ip; for responders at 2.5 mg/kg: 2.5 mg./kg. i.p.; for responders at 5 mg/kg: 5.0 mg./kg. i.p.; for responders at 7.5 mg/kg: 7.5 mg./kg. i.p. How it is done: The efficacy of the novel compounds against Pasteurella multocida infections in mice when administered by injection was studied.
Female Swiss mice weighing from 15 to about 20 g. were used. The test compound, 5.0 mg., was weighed out and dissolved in 0.5 ml. of dimethyl sulfoxide, and this solution was added to 9.5 ml. of sodium carboxymethylcellulose suspension. Groups of five mice each were injected intraperitoneally with 0.1 ml. each of the above-prepared test composition. This preparation gave a test rate of 2.5 mg. per kilo of body weight of mouse. The compounds were tested at 2.5, 5.0, or 7.5 mg. per kilo of body weight of mouse, and the test preparations for rates of 5.0 and 7.5 mg./kg. were prepared in a similar manner. Immediately after receiving the test compound, the mice were challenged using log10 dilutions of 10^-^4, 10^-^5, 10^-^6, and 10^-^7 of a 16 to 20-hour tryptose broth culture of Pasteurella multocida at 0.1 ml. per mouse subcutaneously. Similar groups of nontreated control mice were also challenged, the challenge being administered subcutaneously. The groups of mice were observed daily for mortality and the total mortality in treated groups compared with that which occurred in the nonmedicated control groups. Each test compound is identified by the number of the example describing its preparation.
In the chart, column 1 lists the test compound; column 2, the dosage of test compound in mg./kg. of mouse body weight; column 3, the dilution of the challenge organism; and column 4, the ratio of the number of mice surviving the test at each dosage and challenge dilution to the number of mice tested at each dosage and challenge dilution, called the survival ratio.

In experiment [1] the test system is Fusobacterium necrophorum 13859. Put plainly: Susceptibility of anaerobic bacteria, agar dilution. The conditions noted are these: read-out: 24 Hr. Minimum Inhibitory Concentration. It counts as cell-based.
The subject of experiment [2] is Veillonella alcalescens 1. The experiment is described as above. The note with it: read-out: 24 Hr. Minimum Inhibitory Concentration. Format: cell-based.
The subject of experiment [3] is Clostridium septicum 1128. The experiment is described as above. Format: cell-based. The conditions noted are these: 24 h, read-out: 24 Hr. Minimum Inhibitory Concentration.
In experiment [4] the test system is Clostridium septicum bovine. Described as above. It counts as cell-based. The note with it: 24 h, read-out: 24 Hr. Minimum Inhibitory Concentration.
Setting [5] is: challenge dilution 10^-^4, read-out: Survival Ratio (converted).
The mark [6] stands for this setting: challenge dilution 10^-^5, read-out: Survival Ratio (converted).
[7] abbreviates: challenge dilution 10^-^6, read-out: Survival Ratio (converted).
Setting [8] is: challenge dilution 10^-^7, read-out: Survival Ratio (converted).
[9] abbreviates: challenge dilution 10^-^4, read-out: Survival Ratio.
[10] abbreviates: challenge dilution 10^-^5, read-out: Survival Ratio.
The mark [11] stands for this setting: challenge dilution 10^-^6, read-out: Survival Ratio.
The mark [12] stands for this setting: Fusobacterium necrophorum, 13859, 24 h.
Where [13] appears, read: 24 h, Fusobacterium necrophorum 13859.
Setting [14] is: Veillonella parvula, 24 h, Veillonella alcalescens 1.

For `Cn1nc(-c2ncc([N+](=O)[O-])n2C)c(C#N)c1N` [Compound 1, 5-Amino-1-methyl-3-(1-methyl-5-nitro-2-imidazolyl)pyrazole-4-carbonitrile], the “Survival Ratio” value with Salmonella typhimurium (10 g./ton in feed) was 28/36; in the experiment with Salmonella typhimurium (25 g./ton in feed) it was 36/36; with Salmonella typhimurium (50 g./ton in feed), 36/36; with Salmonella typhimurium (100 g./ton in feed), 35/36. Moreover, the “Final Avg. Chicken Wt.” value in the experiment on Salmonella typhimurium (10 g./ton in feed) worked out at 97 g; in the experiment with Salmonella typhimurium (25 g./ton in feed) it was 121 g; in the experiment with Salmonella typhimurium (50 g./ton in feed), 116 g; in the experiment on Salmonella typhimurium (100 g./ton in feed) it was 105 g. The responders at 2.5 mg/kg in the experiment with Pasteurella multocida (setting [5]) was 10%; in the experiment on Pasteurella multocida (setting [6]) it was 40%; in the experiment with Pasteurella multocida (setting [7]) it was 80%; with Pasteurella multocida (setting [8]), 95%. The responders at 5 mg/kg with Pasteurella multocida (setting [5]) was 30%; in the experiment on Pasteurella multocida (setting [6]), 90%; in the experiment with Pasteurella multocida (setting [7]), 90%; with Pasteurella multocida (setting [8]), 100%. The responders at 7.5 mg/kg in the experiment with Pasteurella multocida (setting [9]) is 70%; in the experiment on Pasteurella multocida (setting [10]), 90%; in the experiment with Pasteurella multocida (setting [11]) it was 100%. Further, the MIC in experiment [1] (setting [12]) is < 0.125 µg/mL; in experiment [2] (Veillonella parvula, 1, 24 h), < 0.125 µg/mL; in experiment [3] it was < 0.125 µg/mL; in experiment [4] it was < 0.125 µg/mL.
Turning to `Cn1nc(-c2ncc([N+](=O)[O-])n2C)c(C(N)=O)c1N` [Compound 2, 5-Amino-1-methyl-3-(1-methyl-5-nitro-2-imidazolyl)pyrazole-4-carboxamide], the values for the responders at 2.5 mg/kg in the experiment with Pasteurella multocida (setting [5]), in the experiment on Pasteurella multocida (setting [6]) and in the experiment on Pasteurella multocida (setting [7]) were 50%, 90% and 100%, respectively. Besides, the MIC is < 0.125 µg/mL in experiment [1] (setting [12]); < 0.125 µg/mL in experiment [2] (Veillonella parvula, 1, 24 h); < 0.125 µg/mL in experiment [3]; < 0.125 µg/mL in experiment [4].
Regarding `COC=Nc1c(C#N)c(-c2ncc([N+](=O)[O-])n2C)nn1C` [Compound 6, Methyl N-[4-cyano-1-methyl-3-(1-methyl-5-nitro-2-imidazolyl)pyrazol-5-yl]formimidate], the “Survival Ratio” value with Salmonella typhimurium (10 g./ton in feed) is reported as 33/36; in the experiment on Salmonella typhimurium (25 g./ton in feed), 36/36; in the experiment with Salmonella typhimurium (50 g./ton in feed), 35/36; in the experiment with Salmonella typhimurium (100 g./ton in feed), 33/36. Also, the “Final Avg. Chicken Wt.” value with Salmonella typhimurium (10 g./ton in feed) came to 110 g; with Salmonella typhimurium (25 g./ton in feed) it was 119 g; in the experiment with Salmonella typhimurium (50 g./ton in feed) it was 125 g; in the experiment on Salmonella typhimurium (100 g./ton in feed), 101 g. For the same molecule, the responders at 2.5 mg/kg is 90% with Pasteurella multocida (setting [5]), 50% with Pasteurella multocida (setting [6]), 90% in the experiment with Pasteurella multocida (setting [7]) and 100% in the experiment with Pasteurella multocida (setting [8]). Also, the responders at 5 mg/kg with Pasteurella multocida (setting [5]) was 80%; with Pasteurella multocida (setting [6]), 90%; with Pasteurella multocida (setting [7]), 100%. Besides, the responders at 7.5 mg/kg in the experiment on Pasteurella multocida (setting [9]) worked out at 90%; in the experiment on Pasteurella multocida (setting [10]), 90%; with Pasteurella multocida (setting [11]) it was 100%. Besides, the MIC in experiment [1] (setting [12]) is < 0.125 µg/mL; in experiment [2] (Veillonella parvula, 1, 24 h) it was < 0.125 µg/mL; in experiment [3], < 0.125 µg/mL; in experiment [4], < 0.125 µg/mL.
On to `CCCCOC=Nc1c(C#N)c(-c2ncc([N+](=O)[O-])n2C)nn1C` [Compound 7, Butyl N-[4-Cyano-1-methyl-3-(1-methyl-5-nitro-2-imidazolyl)-pyrazol-5-yl]formimidate], for which the “Survival Ratio” value in the experiment with Salmonella typhimurium (10 g./ton in feed) was 25/36; in the experiment with Salmonella typhimurium (25 g./ton in feed) it was 34/36; in the experiment with Salmonella typhimurium (50 g./ton in feed), 36/36; with Salmonella typhimurium (100 g./ton in feed), 33/36. The “Final Avg. Chicken Wt.” value worked out at 100 g in the experiment on Salmonella typhimurium (10 g./ton in feed), 117 g in the experiment with Salmonella typhimurium (25 g./ton in feed), 121 g in the experiment with Salmonella typhimurium (50 g./ton in feed) and 102 g in the experiment with Salmonella typhimurium (100 g./ton in feed). Also, the responders at 2.5 mg/kg was 15% with Pasteurella multocida (setting [5]), 35% in the experiment on Pasteurella multocida (setting [6]) and 70% with Pasteurella multocida (setting [7]). The responders at 5 mg/kg in the experiment with Pasteurella multocida (setting [5]) was 30%; in the experiment on Pasteurella multocida (setting [6]), 45%; in the experiment with Pasteurella multocida (setting [7]), 75%. For the same molecule, the figures for the responders at 7.5 mg/kg with Pasteurella multocida (setting [9]), in the experiment with Pasteurella multocida (setting [10]) and in the experiment on Pasteurella multocida (setting [11]) were 50%, 70% and 100%, respectively. The MIC was < 0.125 µg/mL in experiment [1] (setting [12]); < 0.125 µg/mL in experiment [2] (Veillonella parvula, 1, 24 h); < 0.125 µg/mL in experiment [3]; < 0.125 µg/mL in experiment [4].
As to `CC(=O)Nc1c(C(=O)O)c(-c2ncc([N+](=O)[O-])n2C)nn1C` [Compound 12, 5-acetamido-1-methyl-3-(1-methyl-5-nitro-2-imidazolyl)pyrazole-4-carboxylic acid], the responders at 5 mg/kg with Pasteurella multocida (setting [5]) is 0%; in the experiment with Pasteurella multocida (setting [6]), 30%; with Pasteurella multocida (setting [7]), 70%. Besides, the MIC in experiment [1] (setting [13]) is < 0.125 µg/mL; in experiment [2] (setting [14]), 0.5 µg/mL (≈ 1.62 µM); in experiment [3], 4 µg/mL (≈ 13 µM); in experiment [4] it was 8 µg/mL (≈ 26 µM).
For `C=CCOC=Nc1c(C#N)c(-c2ncc([N+](=O)[O-])n2C)nn1C` [Compound 13A, Allyl N-[4-cyano-1-methyl-3-(1-methyl-5-nitro-2-imidazolyl)pyrazol-5-yl]formimidate], the responders at 5 mg/kg in the experiment on Pasteurella multocida (setting [5]) was 60%; in the experiment with Pasteurella multocida (setting [6]) it was 80%; in the experiment on Pasteurella multocida (setting [7]), 100%. For the same molecule, the MIC was < 0.125 µg/mL in experiment [1] (setting [13]), < 0.125 µg/mL in experiment [2] (setting [14]), 0.5 µg/mL (≈ 1.59 µM) in experiment [3] and 0.5 µg/mL (≈ 1.59 µM) in experiment [4].
On to `CCCCC(CC)COC=Nc1c(C#N)c(-c2ncc([N+](=O)[O-])n2C)nn1C` (stereo not shown) [Compound 13D, 2-Ethylhexyl N-[4-cyano-1-methyl-3-(1-methyl-5-nitro-2-imidazolyl)pyrazol-5-yl]formimidate], for which the responders at 2.5 mg/kg with Pasteurella multocida (setting [5]) is 30%; in the experiment with Pasteurella multocida (setting [6]), 70%; with Pasteurella multocida (setting [7]) it was 90%. The values for the responders at 5 mg/kg in the experiment on Pasteurella multocida (setting [5]), in the experiment on Pasteurella multocida (setting [6]) and with Pasteurella multocida (setting [7]) were 90%, 100% and 100%, respectively. Further, the responders at 7.5 mg/kg in the experiment with Pasteurella multocida (setting [9]), with Pasteurella multocida (setting [10]) and in the experiment with Pasteurella multocida (setting [11]) was 100% throughout. Also, the MIC is < 0.125 µg/mL in experiment [1] (setting [13]), 0.25 µg/mL (≈ 0.645 µM) in experiment [2] (setting [14]), 2 µg/mL (≈ 5.16 µM) in experiment [3] and 4 µg/mL (≈ 10.3 µM) in experiment [4].

The values are drawn from patent US3980794A, “Method for promoting growth of poultry with 3-(5-nitro-2-imidazolyl)pyrazoles” (Eli Lilly and Company, priority 1975, dated 1976).
